# Legend:
# [1] = tested on: IL-6 mRNA; experiment: IL-6 mRNA expression in muscularis externae of intestinal grafts; assay type: in vivo, rat
# Method: (§1) To investigate the sequential analysis of cytokine mRNA expression in the mucosa and muscularis, RNase protection assay was performed with the Riboquant™ kit (Pharmingen) according to the protocol of the manufacturer. […] Quantification of radioactivity of mRNA bands was performed with NIH Image, normalized to GAPDH, and expressed as a ratio of cytokine /GAPDH (n=3-4).
# (§2) The effects of inhalation of CO on transplant-induced pro-inflammatory and anti-inflammatory gene expression was assessed in muscularis extracts by RT-PCR. […] Equal aliquots (5 μg) of total RNA from each sample were quantified by spectrophotometry (wavelength […]) and aliquoted at a concentration of 40 ng/μl. Peak mRNA expression was quantified in duplicate by SYBR Green two-step, real-time RT-PCR. […] Real-time PCR data were plotted as the ΔRn, fluorescence signal versus the cycle number. […] Quantification of mRNA expression was normalized to GAPDH and calculated relative to control using the comparative CT method (Schmittgen et al., J. Biochem. Biophys. Methods 46(1-2):69-8 (2000)). […]
# [2] = tested on: IL-1β mRNA; experiment: IL-1β mRNA expression in muscularis externae of intestinal grafts; assay type: in vivo, rat
# Method: as §1, §2
# [3] = tested on: IL-10 mRNA; experiment: Example 3 IL-10 mRNA by SYBR green real time RT-PCR; assay type: in vivo, mouse; settings: IM-CO mice
# Method: Ileus was induced in mice by gentle manipulation of the small intestine. An incision was made to expose the abdominal cavity of the mouse, and bowel manipulation was performed by gentle poking and prodding of the small intestine (see, e.g., Schwarz et al., Gastroenterology 121(6):1354-1357 (2001)). […] Mice were exposed to CO by inhalation (250 and 500 ppm) for 1 hour immediately prior to intestinal manipulation and during the entire 24-hour recovery period. Intestinal contractility was assessed in vitro by measuring circular muscle strip contractions in response to bethanechol (0.3-300 μM) and in vivo by determining intestinal transit from the distribution of orally-fed, fluorescein-labeled dextran and calculating geometric center as described in Example 1 above. HO-1 and IL-10 mRNA expression were determined by SYBR green real time RT-PCR from extracts of muscularis extemae, as described in Example 1 above. Release of nitric oxide (NO), a potent inhibitor of smooth muscle contractility, was estimated by measuring serum total nitrite, also described in Example 1 above.
# [4] = tested on: ICAM-1 mRNA; experiment: ICAM-1 mRNA expression in muscularis externae of intestinal grafts (real time RT-PCR); assay type: in vivo, rat; settings: SITx recipients treated with CO, 4 hours after reperfusion
# Method: The effects of inhalation of CO on transplant-induced pro-inflammatory and anti-inflammatory gene expression was assessed in muscularis extracts by RT-PCR. Muscularis extemae was collected from normal intestine and transplanted grafts 4 hours postoperatively and snap frozen in liquid nitrogen. This time point falls within the range of maximum inflammatory mediator expression that occurs between 3 and 6 hours following abdominal incision. Total RNA extraction was performed using the guanidium-thiocyanate phenol-chloroform extraction method as described previously (Eskandari et al., Am. J. Clin. Pathol. 75(3):367-370 (1997)). RNA pellets were resuspended in RNA-secure resuspension solution (Ambion Inc., Austin, Tex.), followed by removal of potentially contaminating DNA by treatment with DNase I (DNA-Free Kit, Ambion Inc., Austin, Tex.). Equal aliquots (5 μg) of total RNA from each sample were quantified by spectrophotometry (wavelength […]) and aliquoted at a concentration of 40 ng/μl. Peak mRNA expression was quantified in duplicate by SYBR Green two-step, real-time RT-PCR. […] Real-time PCR data were plotted as the ΔRn, fluorescence signal versus the cycle number. […] Quantification of mRNA expression was normalized to GAPDH and calculated relative to control using the comparative CT method (Schmittgen et al., J. Biochem. Biophys. Methods 46(1-2):69-8 (2000)). […]
compound,measurement,setting,value
"[C-]#[O+] [CO, carbon monoxide]",IL-6 mRNA,"[1]; SITx + CO, Table 2",22.3 ± 1.8 % GAPDH
same,reduction of mean relative IL-6 mRNA expression,"[1]; SITx recipients treated with CO vs SITx, 4 hours after reperfusion, p=0.084",40%
same,IL-1β mRNA,"[2]; SITx + CO, Table 2",6.6 + 0.1 % GAPDH
same,reduction of mean relative IL-1β mRNA expression,"[2]; SITx recipients treated with CO vs SITx, 4 hours after reperfusion, p=0.046",50%
same,IL-10 expression versus controls,[3],35 fold
same,ICAM-1 expression,[4],unchanged

# From US7687079B2, “Methods of treating ileus” (priority 2002, dated 2010)
